Measurements reported in EP1350507A1, “Delivery of a substance to a pre-determinated site” (Applied NanoSystems B.V., priority 2002, dated 2003).
One block for each compound: values may come before it.

Key:
[1] = Gelation experiment with dithienylcyclopentene derivatives (heat, cool, no gravitational flow; UV-vis/CD); assay type: physicochemical; details: for Solvents in which gelation did occur: cooling to room temperature, 1 ml solvent
Protocol: In a typical gelation experiment, a carefully weighed amount of the dithienylcyclopentene derivative under investigation and 1 ml of the solvent are placed in a test tube, which is sealed and then heated until the compound is dissolved. The solution is allowed to cool to room temperature. […] The gelation process could be followed by UV-vis and CD spectroscopy as depicted in Figure 23. […] Increasing the concentration to 1.8 mM causes gelation of the solvent, which is accompanied by a change of the UV-visible spectrum, together with the appearance of a strong CD signal at 323 nm (Figure 22 A and B). Similar changes in the UV-vis and CD spectrum are observed upon gelation of the 1.8 mM solution of D in toluene by cooling to a temperature below the sol-gel phase transition(from here on referred to as gel(o). From a plot of the increase of the CD signal versus the temperature the sol-gel phase transition temperature of gel(o) was determined to be 29°C for a 1.8 mM solution of D in toluene.

[2] = Photoswitching of a gel of compound D; assay type: physicochemical
Protocol: In a typical photoswitching experiment a solution (1.8 mM) of Compound D in toluene was prepared by cooling from 70°C to the desired temperature (typically between 30°C and 60°C, i.e. above the gel-sol phase transition temperature of the open form of D) in a cuvette of 1 mm path length. This solution was then irradiated at λ1 = 313 nm to convert the ring-open form of Compound D to the ring-closed form. By using a 150 W Xe lamp and a 313 nm bandpass filter, the photostationary state (PSS) was reached typically within 10 minutes, which consist of 60mol% of the closed form and 40mol% of the open form.
Gels of the closed form of D can also be dissolved by converting the closed form to the open form by irradiation with light of wavelength □□. Irradiation of gel(c,I) or gel(c,II) with □□ > 450 nm at while keeping the temperature between 30°C and 60°C causes dissolution of the gel to give a solution of the open form D, of which the UV-vis and CD spectra are identical to that of the starting solution. This process of gelation-dissolution by alternating irradiations with UV (313 nm) and Vis (> 450 nm) light can be repeated many times, showing that the photo-induced gelation process is fully reversible. In another experiment a solution (1.8 mM) of Compound D in toluene was prepared by cooling from 70°C to a temperature below the gel-sol phase transition temperature of the open form of (typically between 20°C and 29°C) in a cuvette of 1 mm path length.

[3] = Solvent scope of N,N'-dialkylaldaramides or N,N'-dialkylpentaramides (gelation behaviour in solvents); assay type: physicochemical
Text: It will be understood that the use of the present gelling agents or thickeners to prepare a gel or to thicken a composition is also encompassed by the invention. As is well-known, gelling behavior of compounds or compositions is highly unpredictable. […] Preferably, the gelling phenomenon is thermoreversible.
(§1) Preferred examples include aromatic and non-aromatic hydrocarbons, alcohols, ethers, esters, aldehydes, alkanoic acids, epoxides, amines, halogenated hydrocarbons, silicon oils, vegetable oils, phosphoric esters, sulfoxides and mixtures thereof. The compound also produces a gel in hydrophilic solvents such as water. The choice of composition for gelling can be tuned to the invented use. For instance in situations where clinical application of a vehicle of the invention is intended biocompatibility of the composition is preferred. In order to obtain a gel, the gelling agent or thickener is preferably mixed with the composition to be transformed to a gel in an amount of between 0.01 and 50 wt.%, based on the weight of the composition. In a preferred embodiment the mixture of the gelling agent or thickener and the composition is heated to allow for an even better gel formation or thickening. Typically, the heating will involve raising the temperature of the mixture to about 30 - 175 °C until a clear solution is obtained. In an alternative embodiment, the gelling agent is first dissolved in a polar or apolar solvent and then added to or sprayed into a composition or solvent to be converted into a gel.

[4] = Concentration range of N,N'-dialkylaldaramides or N,N'-dialkylpentaramides in solvents; assay type: physicochemical
Text: as §1

COS-7 cells [5] = assay: Transfection of COS-7 cells with β-galactosidase reporter plasmid; assay type: cell-based
Protocol: Transfections are carried out following standard protocols as is described in EP 0755924. In numerous publications variations of transfection protocols are given. A person acquainted with the field of non-viral transfections, in particular transfections using cationic amphiphiles will be able to use the cationic amphiphiles of the invention in transfection methods known per se. In standard experiments COS-7 cells are transfected with plasmid DNA containing the β-galactosidase reporter gene. Upon successful transfection the cell produces the enzyme β-galactosidase whose activity can be easily measured. […] Toxicity of the cationic amphiphiles towards the cells can be monitored qualitatively and quantitatively by visual inspection of the cells and by a protein determination.
[…] The plasmid concentration was determined by measuring the absoption at 260 nm using the relation 1.0 OD = 50 µg/ml. […]
The complex of cationic amphiphile/DOPE (1:1) with pCMV β-gal was prepared at the charge ratio 2.5:1 (15 nmol lipid and 1 µg DNA), in 100µl 10 mM HEPES (pH=7.4, 150 mM NaCl). […] Control wells underwent identical steps except that no cationic amphiphile was added. β-galactosidase activity was observed whereas in control wells no activity was detected. […]

COS-7 cells [6] = assay: Toxicity of cationic amphiphile towards the cells (protein determination); assay type: cell-based; details: protein determination compared with control wells
Protocol: Transfections are carried out following standard protocols as is described in EP 0755924. In numerous publications variations of transfection protocols are given. A person acquainted with the field of non-viral transfections, in particular transfections using cationic amphiphiles will be able to use the cationic amphiphiles of the invention in transfection methods known per se. In standard experiments COS-7 cells are transfected with plasmid DNA containing the β-galactosidase reporter gene. Upon successful transfection the cell produces the enzyme β-galactosidase whose activity can be easily measured. Other plasmids comprising alternative reporter genes such as the gene encoding Green Fluoerscent Protein or Chloroamphenicol Acetyl Transferase are suited as well. For analyzing stable transfection a plasmid containing the neomycin resistance gene can be used. Toxicity of the cationic amphiphiles towards the cells can be monitored qualitatively and quantitatively by visual inspection of the cells and by a protein determination.
The complex of cationic amphiphile/DOPE (1:1) with pCMV β-gal was prepared at the charge ratio 2.5:1 (15 nmol lipid and 1 µg DNA), in 100µl 10 mM HEPES (pH=7.4, 150 mM NaCl). […] Control wells underwent identical steps except that no cationic amphiphile was added. β-galactosidase activity was observed whereas in control wells no activity was detected.

[7] = 1.8 mM in toluene, irradiation at 313 nm

sol-gel phase transition temperature of gel(o) ([1]; 1.8 mM solution in toluene, open form, from CD signal versus temperature): 29 °C | Concentration that causes gelation of the solvent ([1]; Toluene): 1800 µM | sol-gel phase transition temperature of gel(c,I) ([2]; 1.8 mM in toluene after irradiation at 313 nm): 62 °C | Time without gel formation, solutions kept in the dark ([2]; 1.8 mM in toluene, between 20°C and 29°C, not irradiated): > 1 h | closed form in the photostationary state (PSS) [2, 7]: 60 mol% | open form in the photostationary state (PSS) [2, 7]: 40 mol% | Time to reach the photostationary state (PSS) ([2]; 1.8 mM in toluene, irradiation at 313 nm, 150 W Xe lamp): ≤ 10 min | Increase of thermal stability compared to gel(o) ([2]; gel(c,I), toluene): more than 30 °C
Compound: Cc1sc(C(=O)N[C@H](C)c2ccccc2)cc1C1=C(c2cc(C(=O)N[C@H](C)c3ccccc3)sc2C)CCC1 [Compound D, 1,2-Bis(2'-methyl-5'-{[((R)-1-phenylethyl)amino]carbonyl}thien-3'-yl)cyclopentene]
Solvents in which gelation did occur [1]: cyclohexane, 1-phenyloctane, toluene, n-butyl ether, benzene, tetralin

Compound: Cc1sc(C(=O)N[C@H](C)C2CCCCC2)cc1C1=C(c2cc(C(=O)N[C@H](C)C3CCCCC3)sc2C)CCC1 [Compound E, 1,2-Bis(2'-methyl-5'-{[((R)-1-cyclohexylethyl)amino]carbonyl}thien-3'-yl)cyclopentene]
Solvents in which gelation did occur [1]: hexadecane, cyclohexane, 1-phenyloctane, toluene, n-butylether, benzene, tetralin, 1,4-dioxane, and n-butyl acetate

Solvent scope ([3]; 1,2-Dichloro-ethane): n.s. | Solvent scope ([3]; Cyclohexane): n.s. | Solvent scope ([3]; Ethanol): n.s. | Solvent scope ([3]; Toluene): n.s. | Solvent scope ([3]; n-Butylacetate): n.s. | Solvent scope ([3]; water): n.s.
Compound: CCCCCCCCCCCCNC(=O)[C@@H](O)[C@H](O)[C@H](O)[C@@H](O)C(=O)NCCCCCCCCCCCC [Compound 12Gal12, didodecyl galactaramide]

Compound: Cc1sc(C(=O)Nc2ccccc2)cc1C1=C(c2cc(C(=O)Nc3ccccc3)sc2C)CCC1 [Compound C, 1,2-Bis(5'-(anilinocarbonyl)-2'-methyl-thien-3'-yl) cyclopentene]
Solvents in which gelation did occur [1]: 1-phenyloctane, toluene, n-butylether, benzene, tetralin

Solvent scope ([3]; 1,2-Dichloro-ethane): g/c. | Solvent scope ([3]; Dimethylsulfoxide): g/c. | Solvent scope ([3]; Ethanol): g/c. | Solvent scope ([3]; water): n.s. | Concentration range ([4]; 1,2- Dichloroethane): <5.0%. | Concentration range ([4]; Cyclohexane): <2.5%. | Concentration range ([4]; Dow Corning 702): <2.5%. | Concentration range ([4]; Methyllaurate): <2.5%. | Concentration range ([4]; Toluene): <2.5%. | Concentration range ([4]; n-Butylacetate): <2.5%.
Compound: O=C(NC1CCCCC1)[C@@H](O)[C@@H](O)[C@H](O)[C@@H](O)C(=O)NC1CCCCC1 [Compound C6GluC6, dicyclohexyl glucaramide]

Solvent scope ([3]; Dimethylsulfoxide): g/c. | Solvent scope ([3]; Ethanol): g/c. | Solvent scope ([3]; water): n.s. | Concentration range ([4]; 1,2- Dichloroethane): <50%. | Concentration range ([4]; Cyclohexane): <5%. | Concentration range ([4]; Dow Corning 702): <50% | Concentration range ([4]; Methyllaurate): <5%. | Concentration range ([4]; Toluene): <50%. | Concentration range ([4]; n-Butylacetate): <50%.
Compound: O=C(NC1CCCCCCCCCCC1)[C@@H](O)[C@@H](O)[C@H](O)[C@@H](O)C(=O)NC1CCCCCCCCCCC1 [Compound C12GluC12, dicyclododecyl glucaramide]

Solvent scope ([3]; Cyclohexane): g. ,c*.
Compound: CC(C)=CCCC(C)CCNC(=O)[C@@H](O)[C@@H](O)[C@H](O)[C@@H](O)C(=O)NCCC(C)CCC=C(C)C (stereo partly shown) [CitGluCit, dicitronellyl glucaramide]

Compound: 1-(9'-cis-octadecenyl)-4-(10"-cis-nonadecenyl) pyridinium Chloride
β-galactosidase activity (COS-7 cells [5]; cationic amphiphile/DOPE (1:1) with pCMV β-gal, charge ratio 2.5:1, assay 48 later): observed | β-galactosidase activity compared with Lipofectin™ (COS-7 cells [5]; cationic amphiphile/DOPE (1:1), charge ratio 2.5:1): substantially higher | toxicity towards the cells (COS-7 cells [6]): no toxicity
